Experimental data taken from the supplement of paper PMC13380429.

Experiments:
[1] = system: A549-ACE2; assay: phospholipidosis EC50; higher = less potent phospholipidosis inducer
[2] = system: A549-ACE2 infected with SARS-CoV-2; assay: morphology score (similarity to uninfected cells); higher = more like uninfected cells; details: 24 h
[3] = system: Caco-2; assay: cell viability relative to DMSO; higher = less toxic; details: 72 h
[4] = system: Vero E6; assay: as above; details: 72 h
[5] = system: U2OS; assay: as above; details: 72 h
[6] = system: Calu-3; assay: as above; details: 72 h
[7] = system: HepG2; assay: as above; details: 72 h
[8] = system: A549-ACE2; assay: drug-induced phospholipidosis relative to tamoxifen; higher = more phospholipidosis
[9] = system: A549-ACE2 infected with SARS-CoV-2; assay: cell count relative to DMSO; higher = less toxic; details: 24 h
[10] = system: Caco-2; assay: relative viability EC50 (midpoint between 100% and the lowest measured viability); higher = less toxic; details: 72 h
[11] = system: Vero E6; assay: as above; details: 72 h
[12] = system: U2OS; assay: as above; details: 72 h
[13] = system: Calu-3; assay: as above; details: 72 h
[14] = system: Caco-2; assay: drug sensitivity score (DSS) for viability; higher = more toxic; extreme values may be limits of the assay; details: 72 h
[15] = system: Vero E6; assay: as above; details: 72 h
[16] = system: U2OS; assay: as above; details: 72 h
[17] = system: Calu-3; assay: as above; details: 72 h
[18] = system: HepG2; assay: as above; details: 72 h
[19] = system: A549-ACE2 infected with SARS-CoV-2; assay: SARS-CoV-2 infection rate relative to DMSO; higher = more infection; details: 24 h
[20] = system: HepG2; assay: relative viability EC50 (midpoint between 100% and the lowest measured viability); higher = less toxic; details: 72 h

CC(Cc1ccccc1)NCCC(c1ccccc1)c1ccccc1 (centres undefined) [prenylamine]
Details	SARS-CoV-2 infection rate [%]	cell count [%]	cell viability [%]	morphology score	phospholipidosis EC50 [µM]
[1], 24 h	–	–	–	–	3.65
[1], 48 h	–	–	–	–	4.62
[1], 72 h	–	–	–	–	6.27
[2], 0.3 µM	–	–	–	-0.03	–
[2], 3 µM	–	–	–	0.78	–
[2], 10 µM	–	–	–	0.92	–
[2], 30 µM	–	–	–	-0.09	–
[3], 1 nM	–	–	112	–	–
[3], 10 nM	–	–	101	–	–
[3], 100 nM	–	–	93.6	–	–
[3], 1000 nM	–	–	100	–	–
[3], 10000 nM	–	–	87.1	–	–
[4], 1 nM	–	–	103	–	–
[4], 10 nM	–	–	110	–	–
[4], 100 nM	–	–	102	–	–
[4], 1000 nM	–	–	102	–	–
[4], 10000 nM	–	–	89.3	–	–
[5], 1 nM	–	–	97.2	–	–
[5], 10 nM	–	–	94.7	–	–
[5], 100 nM	–	–	97.3	–	–
[5], 1000 nM	–	–	100	–	–
[5], 10000 nM	–	–	85.7	–	–
[6], 1 nM	–	–	103	–	–
[6], 10 nM	–	–	106	–	–
[6], 100 nM	–	–	95.3	–	–
[6], 1000 nM	–	–	106	–	–
[6], 10000 nM	–	–	17.9	–	–
[7], 1 nM	–	–	110	–	–
[7], 10 nM	–	–	110	–	–
[7], 100 nM	–	–	101	–	–
[7], 1000 nM	–	–	107	–	–
[7], 10000 nM	–	–	64.5	–	–
[9], 0.3 µM	–	103	–	–	–
[9], 3 µM	–	119	–	–	–
[9], 10 µM	–	123	–	–	–
[9], 30 µM	–	19	–	–	–
[19], 0.3 µM	108	–	–	–	–
[19], 3 µM	47	–	–	–	–
[19], 10 µM	6	–	–	–	–
[19], 30 µM	43	–	–	–	–

drug-induced phospholipidosis [%], [8]
Details	0.3 µM	0.833333 µM	3.33333 µM	6.66667 µM	10 µM
24 h	2.14	1.61	44.8	88.2	97.4
48 h	3.35	0.12	33.5	85	103
72 h	3.19	2.37	29.7	74.3	100

Details	drug sensitivity score	relative viability EC50 [µM]
[10]	–	> 10
[11]	–	> 10
[12]	–	> 10
[13]	–	3.51
[14]	0.1	–
[15]	0	–
[16]	0.2	–
[17]	4.1	–
[18]	1.3	–

CC(C)C[C@H](NC(=O)CNC(=O)c1cc(Cl)ccc1Cl)B(O)O [ixazomib]
Details	SARS-CoV-2 infection rate, [19] [%]	cell count, [9] [%]	cell viability, [3] [%]	cell viability, [4] [%]	cell viability, [5] [%]	cell viability, [6] [%]	cell viability, [7] [%]	morphology score, [2]
1 nM	–	–	86.9	97.4	95.9	90	107	–
10 nM	–	–	102	99.3	93.4	99	105	–
0.1 µM	99	90	–	–	–	–	–	0.03
100 nM	–	–	24.4	78.5	84.5	35.8	99.5	–
0.3 µM	98	80	–	–	–	–	–	0.25
1 µM	64	72	–	–	–	–	–	0.26
1000 nM	–	–	4.7	11.5	1.3	5.8	7.7	–
3 µM	46	59	–	–	–	–	–	0.26
10000 nM	–	–	7.3	3.7	-0.1	5.7	0.6	–

[8], 0.3 µM
Details	drug-induced phospholipidosis [%]
24 h	-5.63
48 h	-3.87
72 h	-1.4

Details	drug sensitivity score	relative viability EC50 [µM]
[10]	–	0.0588
[11]	–	0.218
[12]	–	0.197
[13]	–	0.0714
[14]	25.9	–
[15]	18.9	–
[16]	20.5	–
[17]	24.6	–
[18]	16.8	–
[20]	–	0.383

CCCCCCCCCCC(O)C1C=CC2C(=O)N(c3ccccc3)C(=O)C2N1Nc1ccc([N+](=O)[O-])cc1 (centres undefined) [A12B4C3]
Details	SARS-CoV-2 infection rate, [19] [%]	cell count, [9] [%]	cell viability, [3] [%]	cell viability, [4] [%]	cell viability, [5] [%]	cell viability, [6] [%]	cell viability, [7] [%]	morphology score, [2]
1 nM	–	–	96.6	93.1	97.8	98.9	96.9	–
10 nM	–	–	99	99.9	104	104	91.2	–
100 nM	–	–	85.9	98.3	95.5	98.4	99.2	–
0.3 µM	92	107	–	–	–	–	–	0.31
1000 nM	–	–	90	106	99	96.2	102	–
3 µM	95	105	–	–	–	–	–	0.4
10 µM	68	110	–	–	–	–	–	0.65
10000 nM	–	–	92	102	89	95.6	97.7	–
30 µM	37	104	–	–	–	–	–	0.6

drug-induced phospholipidosis [%], [8]
Details	0.3 µM	0.833333 µM	3.33333 µM	6.66667 µM	10 µM	30 µM
24 h	-2.18	-1.14	-1.42	-1.07	-2.23	12.3
48 h	0.96	-1.02	1.8	1.83	2.36	7.09
72 h	1.78	0.183	1.98	2.85	2.51	10.2

Details	drug sensitivity score	relative viability EC50 [µM]
[10]	–	> 10
[11]	–	> 10
[12]	–	> 10
[13]	–	> 10
[14]	0.2	–
[15]	0	–
[16]	0	–
[17]	0	–
[18]	0	–
[20]	–	> 10
